Reference: PubChem BioAssay (NCI)
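Five compound concentrations were applied to cells in 96-well plates for 48 hours; endpoints were derived by simple linear interpolation of the resulting dose-response curve. Definition used: TGI = concentration required for complete inhibition of growth.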

Assays:
Test in all cases: growth of human tumour cells (NCI), 48 h
HS 578T breast = system: HS 578T breast
SF-268 CNS = system: SF-268 CNS
MDA-N = system: MDA-N
SR leukemia = system: SR leukemia
SNB-75 CNS = system: SNB-75 CNS
NCI-H23 lung = system: NCI-H23 lung
MDA-MB-435 = system: MDA-MB-435
786-0 renal = system: 786-0 renal
TK-10 renal = system: TK-10 renal
ACHN renal = system: ACHN renal
CCRF-CEM leukemia = system: CCRF-CEM leukemia
UACC-257 melanoma = system: UACC-257 melanoma
SK-MEL-28 melanoma = system: SK-MEL-28 melanoma
T-47D breast = system: T-47D breast
HOP-92 NSCLC = system: HOP-92 NSCLC
PC-3 prostate = system: PC-3 prostate
NCI-H226 lung = system: NCI-H226 lung
NCI-H460 lung = system: NCI-H460 lung
LOX IMVI melanoma = system: LOX IMVI melanoma

Compound `O=C(c1cccs1)N(C(=O)N1CCN(c2ccccc2)CC1)S(=O)(=O)c1ccccc1` has a TGI (HS 578T breast) of 65.9 µM, a TGI (SF-268 CNS) of 80.6 µM and a TGI (MDA-N) of 41.8 µM. The TGI (SR leukemia) was 49.3 µM, the TGI (SNB-75 CNS) was 61.2 µM and the TGI (NCI-H23 lung) was 59.5 µM. The TGI (MDA-MB-435) was 70.6 µM, the TGI (786-0 renal) was 59.4 µM and the TGI (TK-10 renal) was over 100 µM. For the same compound, the TGI (ACHN renal) was 39.9 µM, the TGI (CCRF-CEM leukemia) was over 100 µM and the TGI (UACC-257 melanoma) was 69.9 µM. It also gave a TGI (SK-MEL-28 melanoma) of 56.3 µM, a TGI (T-47D breast) of 40.4 µM and a TGI (HOP-92 NSCLC) of 55.6 µM. For the same compound, the TGI (PC-3 prostate) was 94.6 µM, the TGI (NCI-H226 lung) was 53.8 µM and the TGI (NCI-H460 lung) was 97.3 µM.

Compound `CCCCCCCCCCCCC/C=C/[C@@H](O)[C@H](COC1OC(CO)C(OC2OC(CO)C(O)C(OC3(C(=O)O)CC(O)C(NC(C)=O)C(C(O)C(O)CO)O3)C2O)C(O)C1O)N=[N+]=[N-]` (stereo partly specified) has a TGI (HS 578T breast) of over 100 µM, a TGI (SF-268 CNS) of 41.3 µM and a TGI (MDA-N) of over 100 µM. For the same compound, the TGI (SNB-75 CNS) was 37.1 µM, the TGI (NCI-H23 lung) was over 100 µM and the TGI (MDA-MB-435) was over 100 µM. It also gave a TGI (786-0 renal) of over 100 µM, a TGI (TK-10 renal) of over 100 µM and a TGI (ACHN renal) of over 100 µM. For the same compound, the TGI (CCRF-CEM leukemia) was 43.4 µM, the TGI (UACC-257 melanoma) was over 100 µM and the TGI (SK-MEL-28 melanoma) was 60.5 µM. The TGI (T-47D breast) was over 100 µM, the TGI (HOP-92 NSCLC) was over 100 µM and the TGI (LOX IMVI melanoma) was 36.6 µM. The TGI (PC-3 prostate) was 59.4 µM, the TGI (NCI-H226 lung) was 45.9 µM and the TGI (NCI-H460 lung) was over 100 µM.

`COc1cc(N(CCC#N)CCC#N)ccc1/C(N=Nc1ccccc1C)=N\NC(=O)c1ccc(C)cc1` gave a TGI (HS 578T breast) of over 100 µM, a TGI (SF-268 CNS) of over 100 µM and a TGI (MDA-N) of 58.8 µM. The TGI (NCI-H23 lung) was over 100 µM, the TGI (MDA-MB-435) was over 100 µM and the TGI (786-0 renal) was over 100 µM. The TGI (TK-10 renal) was over 100 µM, the TGI (CCRF-CEM leukemia) was 40.3 µM and the TGI (UACC-257 melanoma) was over 100 µM. For the same compound, the TGI (SK-MEL-28 melanoma) was over 100 µM, the TGI (T-47D breast) was over 100 µM and the TGI (HOP-92 NSCLC) was over 100 µM. The TGI (LOX IMVI melanoma) was over 100 µM, the TGI (PC-3 prostate) was over 100 µM and the TGI (NCI-H226 lung) was over 100 µM. For the same compound, the TGI (NCI-H460 lung) was over 100 µM.

In the case of `O=C(N[C@@H](c1ccccc1)[C@@H](O)C(=O)OCc1ccc([N+](=O)[O-])cc1)c1ccccc1`, the TGI (HS 578T breast) is reported as over 100 µM, the TGI (SF-268 CNS) is reported as over 100 µM and the TGI (MDA-N) is reported as over 100 µM. It also gave a TGI (SNB-75 CNS) of over 100 µM, a TGI (NCI-H23 lung) of over 100 µM and a TGI (MDA-MB-435) of over 100 µM. The TGI (786-0 renal) was over 100 µM, the TGI (TK-10 renal) was over 100 µM and the TGI (ACHN renal) was over 100 µM. For the same compound, the TGI (CCRF-CEM leukemia) was over 100 µM, the TGI (UACC-257 melanoma) was over 100 µM and the TGI (T-47D breast) was over 100 µM. The TGI (HOP-92 NSCLC) was over 100 µM, the TGI (LOX IMVI melanoma) was over 100 µM and the TGI (PC-3 prostate) was over 100 µM. For the same compound, the TGI (NCI-H226 lung) was over 100 µM and the TGI (NCI-H460 lung) was over 100 µM.

`CN1CCc2c(sc3ncn(C)c(=N)c23)C1` gave a TGI (HS 578T breast) of over 100 µM, a TGI (SF-268 CNS) of over 100 µM and a TGI (MDA-N) of over 100 µM. For the same compound, the TGI (SNB-75 CNS) was over 100 µM, the TGI (NCI-H23 lung) was over 100 µM and the TGI (MDA-MB-435) was over 100 µM. It also gave a TGI (786-0 renal) of over 100 µM, a TGI (TK-10 renal) of over 100 µM and a TGI (ACHN renal) of over 100 µM. It also gave a TGI (CCRF-CEM leukemia) of over 100 µM, a TGI (UACC-257 melanoma) of over 100 µM and a TGI (SK-MEL-28 melanoma) of over 100 µM. The TGI (T-47D breast) was over 100 µM, the TGI (HOP-92 NSCLC) was over 100 µM and the TGI (LOX IMVI melanoma) was over 100 µM. For the same compound, the TGI (PC-3 prostate) was over 100 µM, the TGI (NCI-H226 lung) was over 100 µM and the TGI (NCI-H460 lung) was over 100 µM.

Work on `CCOC(=O)CO/N=C1/C(c2c(O)[nH]c3ccccc23)=Nc2ccccc21` yielded a TGI (HS 578T breast) of over 100 µM, a TGI (SF-268 CNS) of over 100 µM and a TGI (MDA-N) of over 100 µM. It also gave a TGI (SNB-75 CNS) of 9.88 µM, a TGI (NCI-H23 lung) of over 100 µM and a TGI (MDA-MB-435) of over 100 µM. It also gave a TGI (786-0 renal) of over 100 µM, a TGI (TK-10 renal) of over 100 µM and a TGI (ACHN renal) of over 100 µM. The TGI (CCRF-CEM leukemia) was over 100 µM, the TGI (UACC-257 melanoma) was over 100 µM and the TGI (SK-MEL-28 melanoma) was over 100 µM. It also gave a TGI (T-47D breast) of 45.8 µM, a TGI (HOP-92 NSCLC) of 63.3 µM and a TGI (LOX IMVI melanoma) of over 100 µM. The TGI (PC-3 prostate) was over 100 µM and the TGI (NCI-H460 lung) was over 100 µM.

Compound `Cc1cc(C)c2c(c1)C/C(=C\c1ccccc1C(=O)O)C2=O` has a TGI (HS 578T breast) of over 100 µM, a TGI (SF-268 CNS) of over 100 µM and a TGI (MDA-N) of over 100 µM. The TGI (SR leukemia) was over 100 µM, the TGI (SNB-75 CNS) was over 100 µM and the TGI (NCI-H23 lung) was over 100 µM. The TGI (786-0 renal) was over 100 µM, the TGI (TK-10 renal) was over 100 µM and the TGI (ACHN renal) was over 100 µM. It also gave a TGI (CCRF-CEM leukemia) of over 100 µM, a TGI (UACC-257 melanoma) of over 100 µM and a TGI (SK-MEL-28 melanoma) of over 100 µM. For the same compound, the TGI (T-47D breast) was over 100 µM, the TGI (HOP-92 NSCLC) was over 100 µM and the TGI (LOX IMVI melanoma) was over 100 µM. The TGI (PC-3 prostate) was over 100 µM, the TGI (NCI-H226 lung) was over 100 µM and the TGI (NCI-H460 lung) was 26.4 µM.

`O=C(CCc1cc(O)ccc1O)OCCc1ccccc1` gave a TGI (HS 578T breast) of 67.7 µM, a TGI (SF-268 CNS) of over 50.5 µM and a TGI (MDA-N) of 26.9 µM. The TGI (SR leukemia) was over 100 µM, the TGI (SNB-75 CNS) was over 100 µM and the TGI (NCI-H23 lung) was over 90.8 µM. It also gave a TGI (MDA-MB-435) of 24.5 µM, a TGI (786-0 renal) of 24.5 µM and a TGI (TK-10 renal) of 27.8 µM. It also gave a TGI (ACHN renal) of 18.4 µM, a TGI (CCRF-CEM leukemia) of 1.94 µM and a TGI (UACC-257 melanoma) of 28.9 µM. It also gave a TGI (SK-MEL-28 melanoma) of 78.7 µM, a TGI (T-47D breast) of 64.8 µM and a TGI (HOP-92 NSCLC) of 13 µM. For the same compound, the TGI (PC-3 prostate) was 18.5 µM, the TGI (NCI-H226 lung) was over 76.3 µM and the TGI (NCI-H460 lung) was over 100 µM.

For `CC(=O)N(CCc1ccccc1)C(C#N)c1ccccc1` (stereo unspecified), the TGI (HS 578T breast) was over 100 µM, the TGI (SF-268 CNS) was over 100 µM and the TGI (MDA-N) was over 100 µM. The TGI (SR leukemia) was over 100 µM, the TGI (SNB-75 CNS) was over 100 µM and the TGI (NCI-H23 lung) was over 100 µM. For the same compound, the TGI (MDA-MB-435) was over 100 µM, the TGI (786-0 renal) was over 100 µM and the TGI (TK-10 renal) was over 100 µM. For the same compound, the TGI (ACHN renal) was over 100 µM, the TGI (CCRF-CEM leukemia) was over 100 µM and the TGI (UACC-257 melanoma) was over 100 µM. It also gave a TGI (T-47D breast) of over 100 µM, a TGI (LOX IMVI melanoma) of over 100 µM and a TGI (PC-3 prostate) of over 100 µM. The TGI (NCI-H226 lung) was over 100 µM.

`CC(C)N(C(=O)C1(O)c2ccccc2C=Cc2ccccc21)C(C)C` showed a TGI (HS 578T breast) of 68.8 µM, a TGI (SF-268 CNS) of 36 µM and a TGI (MDA-N) of 37.9 µM. The TGI (SR leukemia) was 63 µM, the TGI (NCI-H23 lung) was 34.2 µM and the TGI (MDA-MB-435) was over 100 µM. It also gave a TGI (786-0 renal) of 38.8 µM, a TGI (TK-10 renal) of 31.9 µM and a TGI (ACHN renal) of 29.5 µM. For the same compound, the TGI (SK-MEL-28 melanoma) was 31.4 µM, the TGI (T-47D breast) was 37.1 µM and the TGI (PC-3 prostate) was 28.9 µM. It also gave a TGI (NCI-H226 lung) of 35.8 µM.

`COc1ccc2[nH]c3c(c2c1)CC(=S)N1CCCC(CC3=O)C1` (stereo unspecified) showed a TGI (HS 578T breast) of over 100 µM, a TGI (SF-268 CNS) of over 100 µM and a TGI (MDA-N) of over 100 µM. The TGI (SNB-75 CNS) was over 100 µM, the TGI (NCI-H23 lung) was over 100 µM and the TGI (MDA-MB-435) was over 100 µM. It also gave a TGI (786-0 renal) of over 100 µM, a TGI (TK-10 renal) of over 100 µM and a TGI (ACHN renal) of over 100 µM. It also gave a TGI (CCRF-CEM leukemia) of over 100 µM, a TGI (UACC-257 melanoma) of over 100 µM and a TGI (SK-MEL-28 melanoma) of over 100 µM. For the same compound, the TGI (T-47D breast) was over 100 µM, the TGI (HOP-92 NSCLC) was over 100 µM and the TGI (PC-3 prostate) was over 100 µM. The TGI (NCI-H226 lung) was over 100 µM and the TGI (NCI-H460 lung) was 92.6 µM.
